# Data reported in patent US20090036450A1, “PYRAZOLE COMPOUNDS AND USE THEREOF” (JAPAN TOBACCO, INC., priority 2006, published 2009).
# Target: T1, human liver glycogen phosphorylase (Homo sapiens, UniProt P06737)
# T1 construct: made in house; host or cells: Sf9 insect cells (suspension of disrupted cells, diluted in BES buffer, not purified)
# T1 sequence (P06737 1-847): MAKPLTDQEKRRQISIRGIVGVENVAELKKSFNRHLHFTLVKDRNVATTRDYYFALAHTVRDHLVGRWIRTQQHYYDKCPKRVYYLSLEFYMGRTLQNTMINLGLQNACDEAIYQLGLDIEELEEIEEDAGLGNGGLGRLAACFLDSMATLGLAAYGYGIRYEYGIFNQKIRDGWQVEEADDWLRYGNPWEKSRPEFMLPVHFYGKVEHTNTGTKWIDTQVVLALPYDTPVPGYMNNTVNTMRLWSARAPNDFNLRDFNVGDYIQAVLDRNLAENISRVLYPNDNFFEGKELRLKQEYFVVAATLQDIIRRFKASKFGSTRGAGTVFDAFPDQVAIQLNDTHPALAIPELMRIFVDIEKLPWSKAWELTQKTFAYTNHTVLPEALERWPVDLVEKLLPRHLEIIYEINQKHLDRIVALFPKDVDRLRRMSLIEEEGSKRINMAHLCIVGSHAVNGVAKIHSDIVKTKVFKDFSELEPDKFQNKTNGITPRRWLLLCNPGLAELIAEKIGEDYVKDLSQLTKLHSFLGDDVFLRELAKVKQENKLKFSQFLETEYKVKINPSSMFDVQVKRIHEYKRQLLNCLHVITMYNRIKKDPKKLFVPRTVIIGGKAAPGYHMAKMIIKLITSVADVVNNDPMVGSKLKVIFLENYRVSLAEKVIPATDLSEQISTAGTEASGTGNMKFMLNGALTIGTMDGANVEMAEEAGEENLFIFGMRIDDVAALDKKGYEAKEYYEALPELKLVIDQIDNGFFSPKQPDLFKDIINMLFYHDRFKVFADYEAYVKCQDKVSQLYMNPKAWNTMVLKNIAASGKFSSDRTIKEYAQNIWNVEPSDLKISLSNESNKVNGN
# Experiment: Liver glycogen phosphorylase activity, forward reaction system (NADPH detection at 340 nm)
# Assay type: biochemical
# Details: enzyme inhibitory activity against recombinant human liver glycogen phosphorylase (Sf9 cell lysate), room temperature, 75 minutes
# Summary of the method: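 Recombinant human liver glycogen phosphorylase from Sf9 lysate, run in forward direction with glycogen and phosphate substrate plus glucose, coupled via phosphoglucomutase/G6PDH to NADPH formation. BES buffer pH 6.8, room temperature, 75 min; A340 change minus blank gives activity. IC50 from percent inhibition vs DMSO control.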
row,SMILES,IC50
1,"Cc1ncc(CNC(=O)c2cc(NC(=O)c3cc(F)c(F)cc3Cl)[nH]n2)c(C2CC2)n1 [Example 1-68, 5-(2-chloro-4,5-difluoro-benzoylamino)-1H-pyrazole-3-carboxylic acid (4-cyclopropyl-2-methyl-pyrimidin-5-ylmethyl)-amide]",< 0.1 µM
2,"Cc1nc(-c2ccc(Cl)s2)sc1CNC(=O)c1cc(NC(=O)c2cc(F)c(F)cc2Cl)[nH]n1 [Example 1-8, 5-(2-chloro-4,5-difluoro-benzoylamino)-1H-pyrazole-3-carboxylic acid [2-(5-chlorothiophen-2-yl)-4-methyl-thiazol-5-ylmethyl]-amide]",< 0.1 µM
3,"Cc1nc(Sc2ccccc2)oc1CNC(=O)c1cc(NC(=O)c2cc(F)c(F)cc2Cl)[nH]n1 [Example 1-49, 5-(2-chloro-4,5-difluoro-benzoylamino)-1H-pyrazole-3-carboxylic acid (4-methyl-2-phenylsulfanyl-oxazol-5-ylmethyl)-amide]",< 0.1 µM
4,"O=C(NCc1csc(-c2ccc(Cl)cc2)n1)c1cc(NC(=O)c2cc(F)c(F)cc2Cl)[nH]n1 [Example 1-5, 5-(2-chloro-4,5-difluoro-benzoylamino)-1H-pyrazole-3-carboxylic acid [2-(4-chloro-phenyl)-thiazol-4-ylmethyl]-amide]",< 0.1 µM
5,"Cc1nc(COCc2ccccc2)oc1CNC(=O)c1cc(NC(=O)c2cc(F)c(F)cc2Cl)[nH]n1 [Example 1-47, 5-(2-chloro-4,5-difluoro-benzoylamino)-1H-pyrazole-3-carboxylic acid (2-benzyloxymethyl-4-methyl-oxazol-5-ylmethyl)-amide]",< 0.1 µM
6,"CCOC(=O)c1nc(C)c(CNC(=O)c2cc(NC(=O)c3cc(F)c(F)cc3Cl)[nH]n2)s1 [Example 1-10, 5-(2-chloro-4,5-difluoro-benzoylamino)-1H-pyrazole-3-carboxylic acid (2-ethoxycarbonyl-4-methyl-thiazol-5-ylmethyl)-amide]",< 0.1 µM
7,"O=C(NCc1nnc(-c2cccc(O)c2)o1)c1cc(NC(=O)c2cc(F)c(F)cc2Cl)[nH]n1 [Example 1-57, 5-(2-chloro-4,5-difluoro-benzoylamino)-1H-pyrazole-3-carboxylic acid [5-(3-hydroxy-phenyl)-[1,3,4]oxadiazol-2-ylmethyl]-amide]",< 0.1 µM
8,"Cc1nc(CCc2ccccc2)oc1CNC(=O)c1cc(NC(=O)c2cc(F)c(F)cc2Cl)[nH]n1 [Example 1-42, 5-(2-chloro-4,5-difluoro-benzoylamino)-1H-pyrazole-3-carboxylic acid (4-methyl-2-phenethyl-oxazol-5-ylmethyl)-amide]",< 0.1 µM
9,"Cc1nc(-c2ccc(C(F)(F)F)cc2)sc1CNC(=O)c1cc(NC(=O)c2cc(F)c(F)cc2Cl)[nH]n1 [Example 1-6, 5-(2-chloro-4,5-difluoro-benzoylamino)-1H-pyrazole-3-carboxylic acid [4-methyl-2-(4-trifluoromethyl-phenyl)-thiazol-5-ylmethyl]-amide]",0.1 to 0.3 µM
10,"Cc1cccc(-c2onc(C)c2CNC(=O)c2cc(NC(=O)c3cc(F)c(F)cc3Cl)[nH]n2)n1 [Example 1-19, 5-(2-chloro-4,5-difluoro-benzoylamino)-1H-pyrazole-3-carboxylic acid [3-methyl-5-(6-methyl-pyridin-2-yl)-isoxazol-4-ylmethyl]-amide]",< 0.1 µM
11,"COc1ccc(-c2nnsc2CNC(=O)c2cc(NC(=O)c3cc(F)c(F)cc3Cl)[nH]n2)cc1 [Example 1-69, 5-(2-chloro-4,5-difluoro-benzoylamino)-1H-pyrazole-3-carboxylic acid [4-(4-methoxy-phenyl)-[1,2,3]thiadiazol-5-ylmethyl]-amide]",< 0.1 µM
12,"CCOC(=O)c1ccc(CNC(=O)c2cc(NC(=O)c3cc(F)c(F)cc3Cl)[nH]n2)o1 [Example 1-1, 5-(2-chloro-4,5-difluoro-benzoylamino)-1H-pyrazole-3-carboxylic acid (5-ethoxycarbonyl-furan-2-ylmethyl)-amide]",< 0.1 µM
13,"Cc1nc(C2CC2)c(CNC(=O)c2cc(NC(=O)c3cc(F)c(F)cc3Cl)[nH]n2)o1 [Example 1-37, 5-(2-chloro-4,5-difluoro-benzoylamino)-1H-pyrazole-3-carboxylic acid (4-cyclopropyl-2-methyl-oxazol-5-ylmethyl)-amide]",< 0.1 µM
14,"Cc1nc(C)c(-c2onc(C)c2CNC(=O)c2cc(NC(=O)c3cc(F)c(F)cc3Cl)[nH]n2)s1 [Example 1-22, 5-(2-chloro-4,5-difluoro-benzoylamino)-1H-pyrazole-3-carboxylic acid [5-(2,4-dimethyl-thiazol-5-yl)-3-methylisoxazol-4-ylmethyl]-amide]",< 0.1 µM
15,"COc1cccc(-c2nnc(CNC(=O)c3cc(NC(=O)c4cc(F)c(F)cc4Cl)[nH]n3)o2)c1 [Example 1-60, 5-(2-chloro-4,5-difluoro-benzoylamino)-1H-pyrazole-3-carboxylic acid [5-(3-methoxy-phenyl)-[1,3,4]oxadiazol-2-ylmethyl]-amide]",< 0.1 µM
16,"O=C(NCc1nnc(-c2cccc([N+](=O)[O-])c2)o1)c1cc(NC(=O)c2cc(F)c(F)cc2Cl)[nH]n1 [Example 1-56, 5-(2-chloro-4,5-difluoro-benzoylamino)-1H-pyrazole-3-carboxylic acid [5-(3-nitro-phenyl)-[1,3,4]oxadiazol-2-ylmethyl]-amide]",< 0.1 µM
17,"Cc1nc(-c2ccc(F)cc2)c(CNC(=O)c2cc(NC(=O)c3cc(F)c(F)cc3Cl)[nH]n2)o1 [Example 1-25, 5-(2-chloro-4,5-difluoro-benzoylamino)-1H-pyrazole-3-carboxylic acid [4-(4-fluoro-phenyl)-2-methyl-oxazol-5-ylmethyl]-amide]",< 0.1 µM
18,"Cc1ccc(-c2onc(C)c2CNC(=O)c2cc(NC(=O)c3cc(F)c(F)cc3Cl)[nH]n2)cn1 [Example 1-21, 5-(2-chloro-4,5-difluoro-benzoylamino)-1H-pyrazole-3-carboxylic acid [3-methyl-5-(6-methyl-pyridin-3-yl)-isoxazol-4-ylmethyl]-amide]",< 0.1 µM

# Further lines, results first:
row,IC50,SMILES
1,< 0.1 µM,"Cc1nc(COC(=O)C2CCCCC2)c(CNC(=O)c2cc(NC(=O)c3cc(F)c(F)cc3Cl)[nH]n2)o1 [Example 3-23, 5-(2-chloro-4,5-difluoro-benzoylamino)-1H-pyrazole-3-carboxylic acid (4-cyclohexanecarbonyloxymethyl-2-methyl-oxazol-5-ylmethyl)-amide]"
2,< 0.1 µM,"Cc1ncc(CNC(=O)c2cc(NC(=O)c3cc(F)c(F)cc3Cl)[nH]n2)c(-c2oc(C)nc2C)n1 [Example 1-83, 5-(2-chloro-4,5-difluoro-benzoylamino)-1H-pyrazole-3-carboxylic acid [4-(2,4-dimethyl-oxazol-5-yl)-2-methyl-pyrimidin-5-ylmethyl]-amide]"
3,0.1 to 0.3 µM,"NC(=O)Cc1nnc(CNC(=O)c2cc(NC(=O)c3cc(F)c(F)cc3Cl)[nH]n2)o1 [Example 3-20, 5-(2-chloro-4,5-difluoro-benzoylamino)-1H-pyrazole-3-carboxylic acid (5-carbamoylmethyl-[1,3,4]oxadiazol-2-ylmethyl)-amide]"
4,< 0.1 µM,"O=C(NCc1cncnc1C1CC1)c1cc(NC(=O)c2cc(F)c(F)cc2Cl)[nH]n1 [Example 1-81, 5-(2-chloro-4,5-difluoro-benzoylamino)-1H-pyrazole-3-carboxylic acid (4-cyclopropyl-pyrimidin-5-ylmethyl)-amide]"
5,< 0.1 µM,O=C(NCc1nnc(-c2cccc(Cl)c2)s1)c1cc(NC(=O)c2cc(F)c(F)cc2Cl)[nH]n1 [Example 1-85]
6,< 0.1 µM,"Cc1ccc(S(=O)(=O)NCc2nc(C)c(CNC(=O)c3cc(NC(=O)c4cc(F)c(F)cc4Cl)[nH]n3)o2)cc1 [Example 3-11, 5-(2-chloro-4,5-difluoro-benzoylamino)-1H-pyrazole-3-carboxylic acid {4-methyl-2-[(toluene-4-sulfonylamino)-methyl]-oxazol-5-ylmethyl}-amide]"
7,< 0.1 µM,"O=C(NCc1nnc(-c2cccc(F)c2)o1)c1cc(NC(=O)c2cc(F)c(F)cc2Cl)[nH]n1 [Example 1-72, 5-(2-chloro-4,5-difluoro-benzoylamino)-1H-pyrazole-3-carboxylic acid [5-(3-fluoro-phenyl)-[1,3,4]oxadiazol-2-ylmethyl]-amide]"
8,< 0.1 µM,"CCOC(=O)c1nc(C)oc1CNC(=O)c1cc(NC(=O)c2cc(F)c(F)cc2C)[nH]n1 [Example 2-1, 5-(4,5-difluoro-2-methyl-benzoylamino)-1H-pyrazole-3-carboxylic acid (4-ethoxycarbonyl-2-methyl-oxazol-5-ylmethyl)-amide]"
